From patent US10689705B2, “FGFR3 fusion gene and pharmaceutical drug targeting same” (Chugai Seiyaku Kabushiki Kaisha, priority 2012, dated 2020) come the findings set out here.

Structures are written as SMILES.

Assay [1] concerns RAT-2 cells that stably express FGFR3-BAIAP2L1. The settings on record: orally once daily from seven days after planting; concentration-dependent (FIG. 13).
Assay [2] deals with human bladder cancer cell line SW780. The assay is described as follows: Antitumor effect in cancer-bearing nude mice (FGFR3-BAIAP2L1 fusion). Type of assay: in vivo, BALB/c nude mice. The following applies: SW780 xenograft. On the procedure:
Nude mice were quarantined for about one week before use, and subjected to subcutaneous transplantation of 5×10^6 SW780 cells in the inguinal region. When the tumor size reached about 200 mm^3, the mice were used in experiments. […] Antitumor effect was determined by comparing the tumor growth during 11 days after the first day of administration (Day 10 when the first day of administration is set at Day 0) with that of the control group. Tumor growth inhibitory effect(TGI)=(1−[Average tumor growth level of treated group]/[Average tumor growth level of control group])×100(%)

Assay [3] has as its system human bladder cancer cell line RT112/84. The assay is described as follows: Antitumor effect in cancer-bearing nude mice (FGFR3-TACC3 fusion). Type of assay: in vivo, BALB/c nude mice. The settings on record: RT112/84 xenograft. On the procedure: Nude mice were quarantined for about one week before use, and subjected to subcutaneous transplantation of about 1×10^7 RT112/84 cells in the inguinal region. When the tumor size reached about 200 mm^3, the mice were used in experiments.
Antitumor effect was determined by comparing the tumor growth during 11 days after the first day of administration (Day 10 when the first day of administration is set at Day 0) with that of the control group. Tumor growth inhibitory effect(TGI)=(1−[Average tumor growth level of treated group]/[Average tumor growth level of control group])×100(%)

For the next assay, the system named is HT-1376. The assay is described as follows: Cell proliferation inhibition, WST-8, four days (Example 3). The following applies: Homo sapiens, HT-1376, 96 h, does not express FGFR3. Type of assay: cell-based. On the procedure: (§1) IC50 was calculated using the least-square method.
Background: Tetrazolium dyes change colour on reduction, which living cells bring about.

The test system of a further assay is UM-UC-14. Described as above. Type of assay: cell-based. The following applies: Homo sapiens, UMUC14, 96 h, mutated type FGFR, no fusion. On the procedure: as §1
For another assay, the system named is RT112/84. The description is as above. Type of assay: cell-based. The following applies: Homo sapiens, RT112/84, 96 h, fusion polypeptide expressing. On the procedure:
as §1

A further assay has as its system BFTC-905. The description is as above. Type of assay: cell-based. The settings on record: Homo sapiens, BFTC-905, 96 h, wild-type FGFR, no fusion. On the procedure:
as §1

The test system of another assay is SW780. Described as above. Type of assay: cell-based. The settings on record: Homo sapiens, SW780, 96 h, fusion polypeptide expressing. On the procedure: as §1
The next assay relates to RT4. Described as above. Type of assay: cell-based. The settings on record: Homo sapiens, RT-4, 96 h, fusion polypeptide expressing. On the procedure: as §1
The test system of assay [4] is bladder cancer-derived cell line RT-4 which expresses an FGFR3-TACC3 fusion polypeptide. As to the kind of experiment: tissue or blood. The settings on record: Homo sapiens, 96 h, read-out: RT-4 (Bladder) IC50.
The subject of assay [5] is colon cancer-derived cell line HCT116. The assay is described as follows: cells. The following applies: Homo sapiens, HCT-116, 96 h, read-out: HCT116 (CRC) IC50.

Usually IC50 stands for the concentration needed to halve the response being measured.

As for `Cc1nc2ccc(-n3ncc(C(=O)c4cc5ccccc5[nH]4)c3N)cc2[nH]1` [COMPOUND A], the “tumor enlargement enhanced by the FGFR3-BAIAP2L1 fusion polypeptide” value in [1] was “significantly suppressed”. The “TGI AFTER 11 DAYS” value in assay [2] (25 mg/kg orally once a day) stood at 47%; in [2] (50 mg/kg orally once a day), 79%; in assay [2] (100 mg/kg orally once a day), 111%; in assay [3] (25 mg/kg orally once a day), 61%; in [3] (50 mg/kg orally once a day), 86%; in assay [3] (100 mg/kg orally once a day), 125%. Further, the half-maximal inhibitory concentration (IC50) is more than 10 µM in the assay with HT-1376; 0.11 µM in the assay with UM-UC-14; 0.018 µM in the assay on RT112/84; more than 10 µM with BFTC-905; 0.12 µM with SW780; 0.35 µM in the assay with RT4.

For `CCN(CC)CCCCNc1ncc2cc(-c3cc(OC)cc(OC)c3)c(NC(=O)NC(C)(C)C)nc2n1` [COMPOUND B, PD173074], the IC50 was determined as 11 µM with HT-1376; 0.01 µM with UM-UC-14; 0.014 µM with RT112/84; 14 µM with BFTC-905; 0.069 µM in the assay on SW780; 0.18 µM in the assay with RT4.

Consider `COc1cc(CCc2cc(NC(=O)c3ccc(N4C[C@@H](C)N[C@@H](C)C4)cc3)[nH]n2)cc(OC)c1` [COMPOUND C, AZD-4547], for which the half-inhibitory concentration (IC50) was 6.7 µM in the assay with HT-1376; 0.016 µM in the assay on UM-UC-14; 0.017 µM in the assay on RT112/84; 11 µM in the assay on BFTC-905; 0.16 µM with SW780; 0.25 µM with RT4.

For the compound `CCN1CCN(c2ccc(Nc3cc(N(C)C(=O)Nc4c(Cl)c(OC)cc(OC)c4Cl)ncn3)cc2)CC1` [COMPOUND D, BGJ-398], the IC50 in the assay with HT-1376 is 10 µM; in the assay on UM-UC-14, 0.017 µM; in the assay on RT112/84, 0.018 µM; with BFTC-905 it was more than 20 µM; with SW780 it was 1.1 µM; in the assay on RT4, 0.23 µM.

As to `COc1cc2c(Oc3ccc4[nH]c(C)cc4c3F)ncnc2cc1OCCCN1CCCC1` [COMPOUND E, cediranib], the IC50 with HT-1376 is 1.1 µM; with UM-UC-14, 0.066 µM; with RT112/84, 0.15 µM; in the assay on BFTC-905, 2.5 µM; with SW780 it was 0.53 µM; with RT4, 0.24 µM.

Take `CN1CCN(c2ccc3nc(-c4c(N)c5c(F)cccc5[nH]c4=O)[nH]c3c2)CC1` [COMPOUND F, dovitinib]: the 50% inhibitory concentration (IC50) in the assay on HT-1376 is 0.62 µM; with UM-UC-14, 0.075 µM; in the assay with RT112/84, 0.13 µM; in the assay with BFTC-905 it was 2.8 µM; in the assay with SW780, 0.57 µM; in the assay on RT4, 0.25 µM.

As to `Cc1nc2ccc(-n3ncc(C(=O)c4cc5ccccc5[nH]4)c3N)cc2[nH]1` [Compound 49], the IC50 in assay [4] worked out at 0.35 µM; in assay [5] it was 13 µM.
